Measured values: ChEMBL document CHEMBL1153550, “In vitro study of Candida tropicalis isolates exhibiting paradoxical growth in the presence of high concentrations of caspofungin” (2007)
Values after ≈ are worked out from the molar mass of the structure shown. Active and inactive are the calls of the source. No cut-off for these calls is given here.

How the values were obtained:
[1] = test system: Candida tropicalis; assay: Antifungal activity against > 2 x 10^7 CFU/ml Candida tropicalis isolate 2 in antibiotic medium 3 assessed as partial growth after 24 hrs by broth microdilution method; assay type: functional, organism-based
[2] = test system: Candida tropicalis; assay: Antifungal activity against > 2 x 10^7 CFU/ml Candida tropicalis isolate 10 in RPMI 1640 medium assessed as partial growth after 24 hrs by broth microdilution method; assay type: functional, organism-based
[3] = test system: Candida tropicalis; assay: Antifungal activity against 2 x 10^7 CFU/ml Candida tropicalis isolate 4 in RPMI 1640 medium assessed as paradoxical growth at 12.5 ug/ml after 24 hrs by broth microdilution method; assay type: functional, organism-based
[4] = test system: Candida tropicalis; assay: Antifungal activity against 2 x 10^7 CFU/ml Candida tropicalis ATCC 750 in RPMI 1640 medium after 24 hrs by broth microdilution method; assay type: functional; details: ATCC 750, 24 h
[5] = test system: Candida tropicalis; assay: Antifungal activity against 2 x 10^7 CFU/ml Candida tropicalis isolate 14 in antibiotic medium 3 after 24 hrs by broth microdilution method; assay type: functional; details: isolate 14, 24 h
[6] = test system: Candida tropicalis; assay: Antifungal activity against 2 x 10^7 CFU/ml Candida tropicalis isolate 6 in antibiotic medium 3 after 24 hrs by broth microdilution method; assay type: functional; details: isolate 6, 24 h
[7] = test system: Candida tropicalis; assay: Antifungal activity against 2 x 10^7 CFU/ml Candida tropicalis isolate 1 in antibiotic medium 3 after 24 hrs by broth microdilution method; assay type: functional; details: isolate 1, 24 h
[8] = test system: Candida tropicalis; assay: Antifungal activity against 2 x 10^7 CFU/ml Candida tropicalis isolate 9 in RPMI 1640 medium after 24 hrs by broth microdilution method; assay type: functional; details: isolate 9, 24 h
[9] = test system: Candida tropicalis; assay: Antifungal activity against 2 x 10^7 CFU/ml Candida tropicalis isolate 7 in RPMI 1640 medium after 24 hrs by broth microdilution method; assay type: functional; details: isolate 7, 24 h
[10] = test system: Candida tropicalis; assay: Antifungal activity against 10^5 CFU/ml Candida tropicalis isolate 4 in RPMI 1640 medium at 12.5 ug/ml treated for 48 hrs followed by incubation in drug free medium for 48 hrs by broth microdilution method; assay type: functional, organism-based
[11] = test system: Candida tropicalis; assay: Antifungal activity against 10^5 CFU/ml Candida tropicalis isolate 5 in RPMI 1640 medium at 12.5 ug/ml treated for 48 hrs followed by incubation in drug free medium for 48 hrs by broth microdilution method; assay type: functional, organism-based
[12] = test system: Candida tropicalis; assay: Antifungal activity against 10^5 CFU/ml Candida tropicalis isolate 10 in RPMI 1640 medium at 12.5 ug/ml treated for 48 hrs followed by incubation in drug free medium for 48 hrs by broth microdilution method; assay type: functional, organism-based
[13] = test system: Candida tropicalis; assay: Antifungal activity against 10^5 CFU/ml Candida tropicalis isolate 12 in RPMI 1640 medium at 12.5 ug/ml treated for 48 hrs followed by incubation in drug free medium for 48 hrs by broth microdilution method; assay type: functional, organism-based
[14] = test system: Candida tropicalis; assay: Antifungal activity against 10^5 CFU/ml Candida tropicalis isolate 15 in RPMI 1640 medium at 12.5 ug/ml treated for 48 hrs followed by incubation in drug free medium for 48 hrs by broth microdilution method; assay type: functional, organism-based
[15] = test system: Candida tropicalis; assay: Antifungal activity against Candida tropicalis isolate 5 in RPMI 1640 medium assessed as paradoxical growth at 6.25 ug/ml after 24 hrs by broth microdilution method; assay type: functional, organism-based
[16] = test system: Candida tropicalis; assay: Antifungal activity against Candida tropicalis isolate 4 in RPMI 1640 medium assessed as paradoxical growth at 6.25 ug/ml after 48 hrs by broth microdilution method; assay type: functional, organism-based
[17] = test system: Candida tropicalis; assay: Antifungal activity against Candida tropicalis ATCC 750 in RPMI 1640 medium assessed as paradoxical growth at 6.25 ug/ml after 48 hrs by broth microdilution method; assay type: functional, organism-based
[18] = test system: Candida tropicalis; assay: Antifungal activity against Candida tropicalis isolate 4 in RPMI 1640 medium assessed as paradoxical growth at 12.5 ug/ml after 24 hrs by broth microdilution method; assay type: functional, organism-based
[19] = test system: Candida tropicalis; assay: Antifungal activity against Candida tropicalis isolate 5 in RPMI 1640 medium assessed as paradoxical growth at 12.5 ug/ml after 24 hrs by broth microdilution method; assay type: functional, organism-based
[20] = test system: Candida tropicalis; assay: Antifungal activity against Candida tropicalis isolate 6 in RPMI 1640 medium assessed as paradoxical growth at 12.5 ug/ml after 24 hrs by broth microdilution method; assay type: functional, organism-based
[21] = test system: Candida tropicalis; assay: Antifungal activity against Candida tropicalis isolate 5 in RPMI 1640 medium assessed as paradoxical growth at 12.5 ug/ml after 48 hrs by broth microdilution method; assay type: functional, organism-based
[22] = test system: Candida tropicalis; assay: Antifungal activity against Candida tropicalis isolate 8 in RPMI 1640 medium assessed as paradoxical growth at 12.5 ug/ml after 48 hrs by broth microdilution method; assay type: functional, organism-based
[23] = test system: Candida tropicalis; assay: Fungicidal activity against Candida tropicalis isolate 15 at =< 3.12 ug/ml after 24 to 48 hrs by time-kill assay; assay type: functional, organism-based
[24] = test system: Candida tropicalis; assay: Antifungal activity against 10^5 CFU/ml Candida tropicalis ATCC 750 in RPMI 1640 medium at 0.4 to 12.5 ug/ml treated for 24 hrs followed by incubation in drug free medium for 48 hrs by broth microdilution method; assay type: functional, organism-based
[25] = test system: Candida tropicalis; assay: Antifungal activity against 10^5 CFU/ml Candida tropicalis isolate 4 in RPMI 1640 medium at 0.4 to 12.5 ug/ml treated for 24 hrs followed by incubation in drug free medium for 48 hrs by broth microdilution method; assay type: functional, organism-based
[26] = test system: Candida tropicalis; assay: Antifungal activity Candida tropicalis isolate 4 in RPMI 1640 medium at 12.5 ug/ml after 24 hrs by time-kill assay; assay type: functional, organism-based
[27] = test system: Candida tropicalis; assay: Antifungal activity against Candida tropicalis isolate 14 in RPMI 1640 medium assessed as paradoxical growth at 12.5 ug/ml after 24 hrs by broth microdilution method; assay type: functional, organism-based
[28] = test system: Candida tropicalis; assay: Antifungal activity against 10^5 CFU/ml Candida tropicalis isolate 6 in RPMI 1640 medium at =< 0.09 ug/ml after 24 hrs by followed by incubation in drug free medium for 48 hrs broth microdilution method; assay type: functional, organism-based
[29] = test system: Candida tropicalis; assay: Antifungal activity against 10^5 CFU/ml Candida tropicalis isolate 6 in antibiotic medium 3 at 12.5 ug/ml treated for 24 hrs followed by incubation in drug free medium for 48 hrs by broth microdilution method; assay type: functional, organism-based
[30] = test system: Candida tropicalis; assay: Antifungal activity against 10^5 CFU/ml Candida tropicalis isolate 6 in antibiotic medium 3 at 6.25 ug/ml treated for 24 hrs followed by incubation in drug free medium for 48 hrs by broth microdilution method; assay type: functional, organism-based
[31] = test system: Candida tropicalis; assay: Antifungal activity against 10^5 CFU/ml Candida tropicalis isolate 14 in RPMI 1640 medium at 12.5 ug/ml treated for 24 hrs followed by incubation in drug free medium for 48 hrs by broth microdilution method; assay type: functional, organism-based
[32] = test system: Candida tropicalis; assay: Antifungal activity against 10^5 CFU/ml Candida tropicalis isolate 11 in RPMI 1640 medium at 12.5 ug/ml treated for 24 hrs followed by incubation in drug free medium for 48 hrs by broth microdilution method; assay type: functional, organism-based
[33] = test system: Candida tropicalis; assay: Antifungal activity against 10^5 CFU/ml Candida tropicalis isolate 8 in RPMI 1640 medium at 12.5 ug/ml treated for 24 hrs followed by incubation in drug free medium for 48 hrs by broth microdilution method; assay type: functional, organism-based
[34] = test system: Candida tropicalis; assay: Antifungal activity against 10^5 CFU/ml Candida tropicalis isolate 4 in RPMI 1640 medium at 12.5 ug/ml treated for 24 hrs followed by incubation in drug free medium for 48 hrs by broth microdilution method; assay type: functional, organism-based

Q: `CC[C@H](C)C[C@H](C)CCCCCCCCC(=O)N[C@H]1C[C@@H](O)[C@@H](NCCN)NC(=O)[C@@H]2[C@@H](O)CCN2C(=O)[C@H]([C@H](O)CCN)NC(=O)[C@H]([C@H](O)[C@@H](O)c2ccc(O)cc2)NC(=O)[C@@H]2C[C@@H](O)CN2C(=O)[C@H]([C@@H](C)O)NC1=O` [CASPOFUNGIN] was tested. Which Activity [1] did it give?
A: inactive

Q: What about the Activity [2] of the same molecule?
A: inactive

Q: What about the Activity [3] of the same molecule?
A: inactive

Q: What about the MIC [4] of the same molecule?
A: 0.024 µg/mL (≈ 0.022 µM)

Q: What about the MIC [5] of the same molecule?
A: 0.024 µg/mL (≈ 0.022 µM)

Q: And the MIC [6]?
A: 0.024 µg/mL (≈ 0.022 µM)

Q: And the MIC [7]?
A: 0.024 µg/mL (≈ 0.022 µM)

Q: What about the MIC [8] of the same molecule?
A: 0.024 µg/mL (≈ 0.022 µM)

Q: What about the MIC [9] of the same molecule?
A: 0.024 µg/mL (≈ 0.022 µM)

Q: What about the Activity [10] of the same molecule?
A: inactive

Q: And the Activity [11]?
A: inactive

Q: What about the Activity [12] of the same molecule?
A: inactive

Q: And the Activity [13]?
A: inactive

Q: What about the Activity [14] of the same molecule?
A: inactive

Q: And the Activity [15]?
A: inactive

Q: And the Activity [16]?
A: inactive

Q: And the Activity [17]?
A: Active

Q: What about the Activity [18] of the same molecule?
A: inactive

Q: And the Activity [19]?
A: inactive

Q: And the Activity [20]?
A: inactive

Q: And the Activity [21]?
A: inactive

Q: And the Activity [22]?
A: inactive

Q: What about the Activity [23] of the same molecule?
A: Active

Q: What about the Activity [24] of the same molecule?
A: inactive

Q: And the Activity [25]?
A: inactive

Q: And the Activity [26]?
A: inactive

Q: And the Activity [27]?
A: inactive

Q: What about the Activity [28] of the same molecule?
A: Active

Q: What about the Activity [29] of the same molecule?
A: inactive

Q: What about the Activity [30] of the same molecule?
A: inactive

Q: And the Activity [31]?
A: inactive

Q: What about the Activity [32] of the same molecule?
A: inactive

Q: What about the Activity [33] of the same molecule?
A: inactive

Q: And the Activity [34]?
A: inactive
